Source: ChEMBL document CHEMBL1201862, “PubChem BioAssay data set” (2004)
Where “and” joins values, the source holds several entries; their conditions need not be identical. Equal values may be shown once. Calls of active or inactive are those of the source.

Columns and labels:
[1] = viability of uninfected HEp-2 cells – cell-based, HTS, cytotoxicity control for RSV inhibitor project, dose response (AID 2410); format: functional; settings: human respiratory syncytial virus
Streptococcus = assay: GAS UMAA2166 growth inhibition – luminescence, BacTiterGlo, counter-screen for streptokinase expression inhibitor project, dose response (AID 1915); format: functional, organism-based;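 also: potency for reduction of bacterial viability or growth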
[2] = tested on: Streptococcus sp. 'group A'; assay: Streptococcus pyogenes SK(-)GAS viability under kanamycin – luminescence, BacTiterGlo, confirmation, counter-screen for streptokinase expression inhibitor project, dose response (AID 1900); format: functional, organism-based
Streptokinase A = target: T1, Streptokinase A (Streptococcus pyogenes serotype M1, UniProt P10520); assay: viability-normalized secreted streptokinase activity reduction – plasminogen activation absorbance, OD405, dose response (AID 1914); format: functional, Streptococcus pyogenes M1 GAS;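 also: secreted streptokinase activity via plasminogen activation per viability signal from cell pellet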
T1 sequence (P10520 whole entry): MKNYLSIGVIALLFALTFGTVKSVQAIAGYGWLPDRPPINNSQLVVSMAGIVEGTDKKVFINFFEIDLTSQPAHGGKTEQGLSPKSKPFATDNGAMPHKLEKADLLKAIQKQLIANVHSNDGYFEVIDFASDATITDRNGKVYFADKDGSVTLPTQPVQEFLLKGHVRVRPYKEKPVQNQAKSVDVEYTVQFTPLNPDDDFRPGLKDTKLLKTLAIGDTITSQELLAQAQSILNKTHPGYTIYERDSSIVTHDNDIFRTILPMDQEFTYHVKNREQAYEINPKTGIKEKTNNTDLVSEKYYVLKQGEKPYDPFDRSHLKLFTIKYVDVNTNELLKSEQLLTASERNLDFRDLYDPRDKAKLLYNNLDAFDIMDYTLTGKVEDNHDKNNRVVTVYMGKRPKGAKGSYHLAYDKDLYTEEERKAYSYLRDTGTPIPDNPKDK

Cytochrome P450 3A4 = Cytochrome P450 3A4 (Homo sapiens, UniProt P08684);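 also: CYP3A4 tested as one member of a cytochrome P450 panel screen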
[3] = target: Luciferin 4-monooxygenase (Photinus pyralis, UniProt P08659); assay: inhibition of purified Photinus pyralis luciferase – biochemical, luminescence, dose response (AID 1891)
[4] = Luminescence Cell-Based Dose Confirmation HTS to Identify Inhibitors of Platelet Dense Granule Release. [Related pubchem assays: 1663 (Primary HTS), 1678 (Summary of Project)]; format: functional
Cytochrome P450 2C9 = Cytochrome P450 2C9 (Homo sapiens, UniProt P11712)
[5] = Luminescence Cell-Based Dose Retest to Confirm Inhibitors of Cancer Stem Cells. [Related pubchem assays (depositor defined):AID2717, AID2721]; format: functional; settings: Homo sapiens
INS1 = assay: INS-1E survival protection against cytokine death – cell-based, luminescence, retest, dose response (AID 449756); format: functional; settings: Rattus norvegicus;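 also: cell death triggered by IL-1 beta plus TNF-alpha plus IFN-gamma mixture; protective hits raise ATP signal compared with cytokine alone wells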
[6] = target: T2, Heat shock factor protein 1 (Mus musculus, UniProt P38532); assay: decrease of HSF1-responsive luciferase luminescence – cell-based, NIH3T3, dose retest, confirmation (AID 2382); format: functional;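 also: NIH3T3 fibroblasts with HSF1-driven luciferase reporter stressed by proteasome inhibitor MG132; luminescence from HSF1-driven luciferase expression after 8 hours of MG132 stress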
T2 sequence (P38532 whole entry): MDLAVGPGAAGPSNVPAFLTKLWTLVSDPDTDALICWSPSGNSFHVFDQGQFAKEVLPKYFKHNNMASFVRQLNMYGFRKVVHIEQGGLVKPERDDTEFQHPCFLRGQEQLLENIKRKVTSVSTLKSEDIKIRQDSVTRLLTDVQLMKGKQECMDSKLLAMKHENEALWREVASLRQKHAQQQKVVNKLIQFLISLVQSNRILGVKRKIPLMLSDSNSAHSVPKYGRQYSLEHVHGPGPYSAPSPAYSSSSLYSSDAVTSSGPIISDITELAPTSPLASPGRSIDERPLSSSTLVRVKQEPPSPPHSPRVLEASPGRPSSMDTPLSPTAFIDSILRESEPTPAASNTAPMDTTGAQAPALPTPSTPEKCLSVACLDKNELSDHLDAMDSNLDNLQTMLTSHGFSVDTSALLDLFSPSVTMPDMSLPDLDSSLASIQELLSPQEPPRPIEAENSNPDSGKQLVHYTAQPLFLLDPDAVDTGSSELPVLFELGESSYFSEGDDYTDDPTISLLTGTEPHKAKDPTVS

[7] = Trypanosoma cruzi growth suppression in host cells – NIH3T3 host cells, beta-gal luminescence, confirmation (AID 2044); format: functional, cell-based;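 also: intracellular parasites grown in NIH/3T3 mouse fibroblasts as host cells; luminescent beta-galactosidase reporter signal from transgenic T. cruzi replicating inside host cells; inhibitors lower the luminescence signal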
[8] = NIH3T3 cell viability loss – ATP luminescence, mouse fibroblasts, counter-screen, dose response (AID 2010); format: functional, cell-based;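 also: cells exposed to compound for about 90 hours before reading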

Cytochrome P450 2C9, sequence (P11712 whole entry): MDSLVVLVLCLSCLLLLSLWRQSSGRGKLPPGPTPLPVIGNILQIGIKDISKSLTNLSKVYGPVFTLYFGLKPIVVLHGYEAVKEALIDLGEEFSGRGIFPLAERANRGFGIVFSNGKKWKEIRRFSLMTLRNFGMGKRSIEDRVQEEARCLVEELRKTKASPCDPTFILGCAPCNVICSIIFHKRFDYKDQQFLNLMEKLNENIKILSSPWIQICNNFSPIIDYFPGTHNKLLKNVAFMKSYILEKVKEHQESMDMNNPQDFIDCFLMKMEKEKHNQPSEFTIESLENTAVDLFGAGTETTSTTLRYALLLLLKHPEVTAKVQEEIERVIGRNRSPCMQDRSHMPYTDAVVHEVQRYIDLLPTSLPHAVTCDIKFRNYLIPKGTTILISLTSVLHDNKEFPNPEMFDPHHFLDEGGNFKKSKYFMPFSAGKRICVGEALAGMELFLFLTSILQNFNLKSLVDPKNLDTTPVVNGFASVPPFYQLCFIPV
Luciferin 4-monooxygenase, sequence (P08659 whole entry): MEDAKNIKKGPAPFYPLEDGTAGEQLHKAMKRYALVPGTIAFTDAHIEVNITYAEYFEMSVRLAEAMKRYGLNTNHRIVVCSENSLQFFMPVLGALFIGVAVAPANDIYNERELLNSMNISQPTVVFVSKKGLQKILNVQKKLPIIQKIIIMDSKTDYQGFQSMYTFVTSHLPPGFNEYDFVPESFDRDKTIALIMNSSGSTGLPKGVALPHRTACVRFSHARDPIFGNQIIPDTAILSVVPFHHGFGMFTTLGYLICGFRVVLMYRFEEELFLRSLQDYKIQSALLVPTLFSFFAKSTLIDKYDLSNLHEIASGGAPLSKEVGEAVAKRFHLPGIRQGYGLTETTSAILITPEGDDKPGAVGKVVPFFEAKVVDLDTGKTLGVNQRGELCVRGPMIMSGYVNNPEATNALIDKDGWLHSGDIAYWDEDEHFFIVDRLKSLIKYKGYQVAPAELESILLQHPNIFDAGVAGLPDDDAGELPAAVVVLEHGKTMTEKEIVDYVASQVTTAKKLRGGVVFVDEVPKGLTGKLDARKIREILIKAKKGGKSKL
Cytochrome P450 3A4, sequence (P08684 whole entry): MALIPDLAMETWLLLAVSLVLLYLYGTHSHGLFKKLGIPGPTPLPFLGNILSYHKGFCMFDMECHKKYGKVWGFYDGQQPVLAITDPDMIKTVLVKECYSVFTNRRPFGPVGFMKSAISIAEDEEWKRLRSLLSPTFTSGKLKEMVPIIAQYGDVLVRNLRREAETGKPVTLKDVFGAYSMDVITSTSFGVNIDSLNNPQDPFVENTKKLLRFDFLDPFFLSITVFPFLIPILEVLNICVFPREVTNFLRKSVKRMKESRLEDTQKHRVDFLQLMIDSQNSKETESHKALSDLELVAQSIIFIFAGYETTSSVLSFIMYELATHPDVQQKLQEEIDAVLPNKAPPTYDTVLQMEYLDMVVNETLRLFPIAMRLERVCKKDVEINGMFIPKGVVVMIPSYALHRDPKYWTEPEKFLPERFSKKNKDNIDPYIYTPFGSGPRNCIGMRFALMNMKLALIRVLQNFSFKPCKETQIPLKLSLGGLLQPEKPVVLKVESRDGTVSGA

## O=C(c1cc2ccccc2o1)N(Cc1nnc(-c2ccccc2Cl)o1)C1CC1
[1]
  CC50: 25.9 µM (active)

## O=C(Nc1ccccc1N1CCCC1)C1CCN(S(=O)(=O)c2ccccc2C(F)(F)F)CC1
[1]
  CC50: > 50 µM (active)

## O=C(CN(C(=O)Cn1nnc(-c2ccccc2F)n1)c1cccc2c1CCCC2)NCc1ccccc1
Streptococcus
  EC50: > 150 µM (not active)
[2]
  EC50: 11.2 µM (active)
Streptokinase A
  EC50: > 150 µM (not active)

## C/C(=N\OC(=O)NC(C)C)c1sc(-c2ccc(Cl)cc2)nc1C
Cytochrome P450 3A4
  AC50: 31.6 µM (inconclusive)

## COc1ccc(OC)c(-n2c(SCC(N)=O)nnc2-c2c[nH]c3ccccc23)c1
[3]
  EC50: > 112 µM (not active)
[4]
  EC50: > 112 µM (not active)

## COCCn1c(=O)c(C)nc2cnc(Nc3cccc(OC)c3)nc21
Cytochrome P450 2C9
  AC50: 39.8 µM (inconclusive)

## CC(/C=N/NC(=O)c1nnn(-c2nonc2N)c1C(C)C)=C\c1ccccc1
[1]
  CC50: 39.5 µM (active)

## Cc1ccc(-n2c(O)cnc2Nc2nc(C)cc(C)n2)cc1
Cytochrome P450 3A4
  AC50: 31.6 µM (inconclusive)

## CCc1ccc(-c2cc(C(=O)N/N=C/c3c[nH]c4ccccc34)[nH]n2)cc1
Streptococcus
  EC50: 6.73 µM (active)
[2]
  EC50: 7.37 µM (active)
[5]
  AC50: 2.97 µM (active)
Streptokinase A
  EC50: > 150 µM (not active)

## O=c1cc(O)cc(/C=C\c2ccc(O)c(O)c2)o1
Cytochrome P450 2C9
  AC50: 25.1 µM (inconclusive)
Cytochrome P450 3A4
  AC50: 3.16 µM (inconclusive)

## C/C(=N\NC(=O)C1CC1)c1ccc(C(C)(C)C)cc1
[1]
  CC50: 34.3 µM (active)

## O=C(CN1CCN(c2cccc(C(F)(F)F)c2)CC1)Nc1cccc(C(F)(F)F)c1
[1]
  CC50: > 50 µM (active)

## Cn1cc(S(=O)(=O)N2CCCC2)cc1C(=O)NCCc1ccccc1
[3]
  EC50: > 112 µM (not active)
[4]
  EC50: > 112 µM (not active)

## CC1=C(C(=O)OC2CCCCC2)C(c2ccc(C)o2)C2=C(O)CC(C)(C)CC2=N1 (stereo not given)
[5]
  AC50: 1.38 µM (active)

## CCCC(=O)NC(N=C(S)Nc1ccc(N=Nc2ccccc2)cc1)C(Cl)(Cl)Cl (stereo not given)
INS1
  AC50: 5.34 µM (active)

## Cn1c(=O)c2nc(CCCc3ccc([N+](=O)[O-])cc3)[nH]c2n(C)c1=O
Cytochrome P450 3A4
  AC50: 3.98 µM (inconclusive)

## Clc1ccccc1Cn1c(/C=C/c2ccco2)nc2ccccc21
[5]
  AC50: 2.86 µM (active)

## Cc1ccc(C)c(CN2CCCN(Cc3cc(C)ccc3C)S2(=O)=O)c1
Streptococcus
  EC50: > 150 µM (not active)
[2]
  EC50: 19.8 µM (active)
Streptokinase A
  EC50: 19.7 µM (active)

## Cc1cc(C)cc(N(C(=O)Cc2cccs2)C(C(=O)NC2CCCCC2)c2ccccn2)c1 (stereo not given)
Cytochrome P450 3A4
  AC50: 0.891 µM (inconclusive)

## COc1ccc(C(=O)OCCOc2cccc(Cl)c2)cc1S(=O)(=O)N1CCOCC1
[3]
  EC50: > 112 µM (not active)
[4]
  EC50: > 112 µM (not active)

## C=CCn1c(SCN2C(=O)c3ccccc3C2=O)nc2ccc(Cl)cc2c1=O
INS1
  AC50: 7.25 µM (active)

## N=C(NOC(=O)c1cccc(Cn2cc(C(F)(F)F)ccc2=O)c1)c1ccc(Cl)cc1
INS1
  AC50: 12.4 µM (active)

## O=c1[nH]c(NCCCO)nc2c1C1(CCCC1)Cc1ccccc1-2
INS1
  AC50: > 260 µM (inactive)

## c1ccc(/C(=N/Nc2nc3ccccc3s2)c2ccccn2)cc1
Cytochrome P450 3A4
  AC50: 3.98 µM (inconclusive)

## CCOC(=O)Cn1c(=O)oc2cc(S(=O)(=O)NCCc3ccc(OCC)c(OCC)c3)ccc21
Cytochrome P450 2C9
  AC50: 0.00562 µM (inconclusive)

## Cc1noc(C)c1CSc1nc2ccccc2nc1NS(=O)(=O)c1ccc(Cl)cc1
Streptococcus
  EC50: 13.7 µM (active)
[2]
  EC50: 6.49 µM (active)
[5]
  AC50: 3.64 µM (active)
Streptokinase A
  EC50: 5.51 µM (active)

## O=[N+]([O-])c1ccc(S(=O)(=O)Nc2cccc(-c3ccc(N4CCCC4)nn3)c2)cc1
[1]
  CC50: 24.5 µM (active)

## C[C@@H](c1ccccc1)N1C(=O)[C@H]2[C@H]3[C@H](O)[C@H](O)C/C(=N/OCc4ccccc4)[C@H]3CC[C@@H]2C1=O
Cytochrome P450 3A4
  AC50: 3.16 µM (inconclusive)

## O=C(COc1cccc(OC(F)F)c1)Nc1ccc(SC(F)F)cc1
[3]
  EC50: > 112 µM (not active)
[4]
  EC50: > 112 µM (not active)

## CN1CCN(C(=O)CCN2C(=O)/C(=C/c3cccc(Br)c3)SC2=S)CC1
[1]
  CC50: 18.8 µM (active)

## COc1cc2c(cc1OC)C(C(=O)Nc1ccc3c(c1)OCCO3)C(c1cccnc1)N(C)C2=O (stereo not given)
Cytochrome P450 2C9
  AC50: 11.2 µM (inconclusive)

## O=C(c1cc(-c2ccc(Br)cc2)nc2ccccc12)N1CCN(c2ccccc2O)CC1
Streptococcus
  EC50: 25.4 µM (inconclusive)
[2]
  EC50: 7.53 µM (active)
Streptokinase A
  EC50: 29.2 µM (active)

## Cc1ccc([C@@H](O)c2cnc(C)n2Cc2ccccc2)cc1
Cytochrome P450 3A4
  AC50: 5.01 µM (inconclusive)

## CCOC(=O)C1CCN(C(=O)c2oc3ccc(S(=O)(=O)N4CCCCCC4)cc3c2C)CC1
[1]
  CC50: 17.7 µM (active)

## CCc1c(C)nc2cc(-c3ccc(OC)c(OC)c3)nn2c1N1CCC(C)CC1
Streptococcus
  EC50: 14.7 µM (active)
[2]
  EC50: 5.05 µM (active)
Streptokinase A
  EC50: 16.6 µM (active)

## COc1cc(C)ccc1OCCCOc1ccccc1Cl
Cytochrome P450 2C9
  AC50: 12.6 µM (inconclusive)
Cytochrome P450 3A4
  AC50: 17.8 µM (inconclusive)

## CO[C@H]1COC(=O)C/C=C\[C@@H](C)COC(=O)[C@@H](CCSC)NC(=O)C/C=C\[C@@H]1C
Cytochrome P450 3A4
  AC50: 3.98 µM (inconclusive) and 5.01 µM (inconclusive)

## Cc1ccc(S(=O)(=O)N(C)c2ccccc2C(=O)NC2CCCC2)cc1
[6]
  EC50: > 195 µM (not active)

## Brc1cccc(OCCN2CCc3ccccc3C2)c1
[5]
  AC50: 24.9 µM (active)

## CCC(C)(C)c1ccc(Oc2cccc(C(=O)O)c2)cc1
Cytochrome P450 2C9
  AC50: 5.01 µM (inconclusive)

## CCC/C(=C1/c2ccccc2C(=O)N1c1ccccc1)c1ccc2c(c1)OCCO2
[5]
  AC50: 3.85 µM (active)

## O=C(c1cnccn1)N1CCC[C@@]2(CCN(c3ncccn3)C2)C1
Cytochrome P450 3A4
  AC50: 15.8 µM (inconclusive)

## COc1ccccc1OCC(=O)Nc1c2c(nn1-c1ccc(F)cc1)CS(=O)(=O)C2
Streptococcus
  EC50: > 150 µM (not active)
[2]
  EC50: > 150 µM (not active)
Streptokinase A
  EC50: > 150 µM (not active)

## COc1ccc(C(=O)N(C)c2ccccc2C(=O)NCCc2ccccc2)cc1
INS1
  AC50: 4.32 µM (active)

## CCOc1cc(C(=O)NCc2ccccc2)ccc1OCC(=O)N1CCOCC1
[6]
  EC50: > 195 µM (not active)

## CN(C)c1ccc(-c2nc(N3CCNCC3)c3ccccc3n2)cc1
Cytochrome P450 3A4
  AC50: 31.6 µM (inconclusive)

## COC(=O)C(NS(=O)(=O)c1ccc(NC(C)=O)cc1)C(C)C (stereo not given)
Cytochrome P450 2C9
  AC50: 1.58 µM (inconclusive)

## O=C(N/N=C/c1ccc[nH]1)c1sc2ccccc2c1Cl
[5]
  AC50: 1.94 µM (active)
[7]
  EC50: 2.3 µM (active)
[8]
  EC50: > 30 µM (not active)

## CC(Sc1nnnn1C)C(=O)Nc1ccc(Oc2ccccc2)cc1 (stereo not given)
[6]
  EC50: > 195 µM (not active)

## COc1ccc(NS(=O)(=O)c2cc(NC(=O)c3ccc(O)nc3)ccc2N2CCCC2)cc1
[5]
  AC50: 0.952 µM (active)

## COCC(=O)N1CCC[C@@]2(CCN(Cc3ccccc3)C2)C1
Cytochrome P450 3A4
  AC50: 25.1 µM (inconclusive)

## O=C(CCc1nnc2ccc(N3CCC4(CC3)OCCO4)nn12)NCc1ccc(F)cc1
[6]
  EC50: > 195 µM (not active)

## COc1ccc2[nH]cc(CCNc3ncnc4ccc(-c5ccccc5OC)cc34)c2c1
Cytochrome P450 3A4
  AC50: 0.794 µM (inconclusive)

## CN1/C(=C\C(=O)Nc2ccc(Cl)cc2)C(C)(C)c2ccccc21
Streptococcus
  EC50: 11.5 µM (active)
[2]
  EC50: 9.32 µM (active)
Streptokinase A
  EC50: > 150 µM (not active)

## CC1(C(=O)OCC(=O)Nc2nc(-c3ccc(F)c(F)c3)cs2)CC1(Cl)Cl (stereo not given)
Streptococcus
  EC50: 11.8 µM (active)
[2]
  EC50: 8.61 µM (active)
Streptokinase A
  EC50: 7.2 µM (active)

## COc1ccc(C(=O)C2CCCN(Cc3cc(C)c(O)c(C)c3)C2)c(OC)c1 (stereo not given)
[5]
  AC50: 0.502 µM (active)

## CCOC(=O)C(=O)NNc1ccc(Cl)cc1
[5]
  AC50: 0.79 µM (active)
